Experimental data: PubChem BioAssay AID1421 (Emory University Molecular Libraries Screening Center, 2008)
The source made the active and inactive calls. The rule behind the calls is not given here.

molecular target: Prostaglandin E2 receptor EP2 subtype (Homo sapiens) (UniProt P43116); assay: compounds shifting PGE2 potency at EP2 – cell-based, human EP2, PGE2 EC50 shift, dose response (AID 1421); settings: EP2-expressing cells, PGE2 EC50 shift by compound
Sequence (P43116 whole entry, looked up): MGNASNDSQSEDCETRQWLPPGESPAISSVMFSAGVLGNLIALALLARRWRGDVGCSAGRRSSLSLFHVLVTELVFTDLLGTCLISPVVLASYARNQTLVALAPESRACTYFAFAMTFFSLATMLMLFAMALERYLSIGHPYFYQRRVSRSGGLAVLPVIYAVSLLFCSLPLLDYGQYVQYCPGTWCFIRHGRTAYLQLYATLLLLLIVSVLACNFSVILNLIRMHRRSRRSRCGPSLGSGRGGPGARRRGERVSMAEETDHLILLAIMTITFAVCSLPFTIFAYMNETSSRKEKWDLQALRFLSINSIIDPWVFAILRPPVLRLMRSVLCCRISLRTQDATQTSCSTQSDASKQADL

outcome	SMILES
active	N#Cc1cn(-c2ccccc2)nc1-c1cc2ccccc2oc1=O
active	Cc1sc(NC(=O)c2ccccc2F)c(CN2CCCCC2C)c1C (centres undefined)
active	CC(=O)N(Cc1cccs1)Cc1cc2ccc(C)c(C)c2nc1Cl
active	Cc1noc(C)c1CSc1ncnc2sc3c(c12)CCC3
active	Cc1ccc(C(=O)Nc2ccccc2C(=O)NCc2ccccc2)cc1
active	COc1cccc2cc(/C(=N/O)c3ccccc3)oc12
active	CC1CCC(C(C)C)C(OC(=O)COC(=O)c2ccc(=O)[nH]c2)C1 (centres undefined)
active	CCSc1cc(N2CCOCC2)nc(-c2ccc(Cl)cc2)n1
active	CCOC(=O)c1c(NC(=O)c2cccs2)sc(C)c1CC
active	CCCc1cc(C(=O)OC)c(NC(=O)c2cc(C)on2)s1

same assay, conditions: EP2-expressing cells, PGE2 EC50 shift by compound; measured here: PGE2 EC50 at 6.7 uM compound

PGE2 EC50 with compound [nM]	SMILES
1.15	CCOC(=O)C1CCCN(c2c(C(=O)c3ccccc3)cnc3ccc(OC)cc23)C1 (centres undefined)
1	CCCCc1nnc(SCCSc2nnc(CCCC)n2N)n1N
0.99	N#Cc1cn(-c2ccccc2)nc1-c1cc2ccccc2oc1=O
0.31	Cc1ccc(C)c(CN2C(=O)C(C)Oc3ccc(C)cc32)c1 (centres undefined)
3.33	Cc1cc(C(=O)CSc2nc3ccccc3c(=O)n2C)c(C)n1Cc1ccc2c(c1)OCO2
1.14	CCOC(=O)c1c(NC(=O)c2ccn(CC)n2)sc2c1CCCC2
0.88	Cc1sc(NC(=O)c2ccccc2F)c(CN2CCCCC2C)c1C (centres undefined)
1.01	CC(=O)N(Cc1cccs1)Cc1cc2ccc(C)c(C)c2nc1Cl
0.33	O=C(O)CCN1C(=O)/C(=C/c2cn(-c3ccccc3)nc2-c2cccs2)SC1=S
0.64	O=C(Nc1cccc(Cl)c1N1CCCCC1)c1ccc2c(c1)OCCO2
0.9	COC(=O)c1c(NC(=S)NN2CCOCC2)sc2c1CCCC2
0.96	O=c1c(C=NCc2ccccc2)c(NCc2ccccc2)nc2ccccn12
0.87	Cc1noc(C)c1CSc1ncnc2sc3c(c12)CCC3
2.69	Nc1n[nH]c2c1C1(CCCCC1)Cc1ccccc1-2
2.05	Cc1ccc(S(=O)(=O)N(CC(=O)N=Nc2c(O)[nH]c3ccccc23)c2ccc(C)c(C)c2)cc1
1.39	O=S1(=O)CCN(Cc2cccc(Cl)c2)CC1
1.42	Cc1ccc(C(=O)Nc2ccccc2C(=O)NCc2ccccc2)cc1
3.08	CNC(=O)NC(=O)CSc1nc(-c2cccs2)c(C#N)c(=O)[nH]1
1.18	Cc1ccc(Cn2ccc(=O)c(OCc3c(Cl)cccc3Cl)c2C)cc1
0.93	COc1ccc(C2=Nn3c(nnc3-c3ccccc3OC)SC2)cc1OC
0.4	CC1=Nc2ccccc2/C1=C/c1sc(=S)n(-c2cccc(C(=O)O)c2)c1O
1.08	Cc1cccc(/C=N/Nc2cc(N3CCOCC3)nc(N3CCOCC3)n2)c1
1.37	CCCOP(=O)(OCCC)C(Nc1cccc(C(F)(F)F)c1)c1ccc(C)cc1 (centres undefined)
0.96	CCOP(=O)(OCC)c1nc(-c2cccc3ccccc23)oc1NCCc1ccc(OC)cc1
0.82	O=C(Nc1ccccc1N1CCOCC1)c1ccc2ccccc2n1

PGE2 EC50 with compound [nM]	SMILES
1.51	COc1cccc2cc(/C(=N/O)c3ccccc3)oc12
1.4	CC1CCC(C(C)C)C(OC(=O)COC(=O)c2ccc(=O)[nH]c2)C1 (centres undefined)
0.96	COC(=O)c1c(NC(=O)c2cccs2)sc2c1CCC(C)C2 (centres undefined)
2.89	COc1ccc(-n2c(-c3cccc(OC)c3)nc(=S)c3c2CCCC3)cc1
2.77	Cc1ccc(-n2c(=S)[nH]c3c(oc4ccccc43)c2=O)cc1
0.69	O=[N+]([O-])c1ccc(Cl)c2c1C1C=CCC1C(c1ccccn1)N2 (centres undefined)
0.81	O=C(CNCC1CCCCC1)Nc1ccccc1N1CCCCC1
1.16	CN(C)c1nccc(N(Cc2ccccc2)Cc2ccccc2)c1C#N
0.89	CCOC(=O)C1CCN(c2c(C(=O)c3ccccc3)cnc3ccc(Cl)cc23)CC1
0.69	CCSc1cc(N2CCOCC2)nc(-c2ccc(Cl)cc2)n1
0.9	c1ccc(-c2n[nH]nc2-c2ccccc2)cc1
1.26	O=S(=O)(c1ccccc1)N(Cc1nc(-c2ccccc2)no1)C1CCCCC1
1.51	CCOC(=O)c1c(NC(=O)c2cccs2)sc(C)c1CC
0.71	O=c1cc(N2CCCCC2)c(-c2ccccc2)nn1Cc1c(Cl)cccc1Cl
1.02	S=c1[nH]nc(C2CCCCC2)n1Cc1ccccc1
0.9	CC1(c2ccccc2)CC(C)(C)N(C(=O)C2CCCO2)c2ccccc21 (centres undefined)
0.84	c1ccc(CCc2ccccc2-c2nc(-c3cccnc3)no2)cc1
1.43	CCc1ccc(C2=Nn3c(nnc3-c3cccs3)SC2)cc1
0.91	O=C(O)c1cc2c(s1)-c1ccccc1OC2
0.51	COc1ccc(C2=NN(C(=O)c3cccs3)C(c3ccccc3O)C2)cc1 (centres undefined)
1.59	COc1ccccc1C1c2[nH]c3ccccc3c2CCN1Cc1cnc(C)s1 (centres undefined)
0.7	CCn1ncc(Cl)c1C(=O)Nc1cc(Cl)ccc1Cl
0.55	CC(C)c1nc(SCc2c(F)cccc2Cl)c2c(=O)n(C)c(=O)n(C)c2n1
1.44	O=C(O)c1ccc(-c2ccccc2Cl)o1
0.72	Cc1ccc(-c2nnn(CC(=O)N(Cc3cccs3)C(C(=O)NC3CCCC3)c3ccncc3)n2)cc1 (centres undefined)

PGE2 EC50 with compound [nM]	SMILES
2.57	Cn1c(=O)c2c(SCc3cccnc3)nc(CC(C)(C)C)nc2n(C)c1=O
1.23	COc1ccc(-n2c(-c3ccccc3)nnc2-c2ccc(Cl)cc2)cc1
1.54	C(=N\N1CCN(C2c3ccccc3-c3ccccc32)CC1)/c1cccnc1
2.63	CCCCCOC(=O)c1[nH]c2c(c1C)C(=O)C(C(=O)OC)C(C)C2 (centres undefined)
1	COC(=O)c1c(NC(NC(=O)C(C)C)C(Cl)(Cl)Cl)sc2c1CCCC2 (centres undefined)
0.7	CCCc1cc(C(=O)OC)c(NC(=O)c2cc(C)on2)s1
1.09	O=S(=O)(c1cccc(C(F)(F)F)c1)N1c2ccccc2-n2cccc2[C@H]1c1cccnc1
0.61	Cc1ccc(C)c(N=C2CCCN2Cc2ccccc2)c1C#N
1.49	CCOC(=O)C1=C(N)OC(C)=C(C#N)C1c1ccco1 (centres undefined)
1.12	CC1=CC(C)(C)N2C(=O)C3(SCC(=O)N3c3ccc(F)cc3)c3cc(C)cc1c32 (centres undefined)
1.44	O=C(Oc1ccc(-c2nccc(-c3ccccn3)n2)cc1)c1cccc(C(F)(F)F)c1
2.62	COc1c(O)cc2oc3cc(O)c(CC=C(C)C)c(O)c3c(=O)c2c1CC=C(C)C
1.13	O=C(OCc1ccccc1Cl)c1ccccc1C(=O)c1ccccc1
0.86	COc1ccc(C)c(Cn2c(-c3nonc3N)nc3ccccc32)c1
0.98	CCOC(=O)c1oc2ccccc2c1NC(=O)c1cccc(OC)c1OC
1.04	COc1ccc(CN2C(=O)CN=C2Nc2cc(C)ccc2C)cc1
0.95	COc1ccc(-c2nc(NC(C)=O)sc2-c2ccc(OC)cc2)cc1
1.64	CCN1C(=O)/C(=C2/C=CC=CN2C)SC1=S
1.41	Cc1ccc(S(=O)(=O)c2ccc(Oc3cccc(C)c3)cc2)cc1
1.13	Cc1cccc(Cn2c(=O)n(Cc3ccco3)c(=O)c3ccccc32)c1
2.59	CC(C)n1c2ccccc2c2nc3ccccc3nc21
1.28	COc1ccc(C2=Nn3c(nnc3-c3ccc(OC)cc3)SC2)cc1
2.59	Cn1c(=O)c2c(nc(CN3CCN(c4ccccc4)CC3)n2Cc2ccccc2Cl)n(C)c1=O
0.84	Cc1nn2c(N3CCCC3)cc(C(C)C)nc2c1-c1ccccc1
